Measurements from patent US9908896B2, “P38 and JNK MAPK inhibitors for the treatment and prophylaxis of degenerative diseases of the nervous system” (ALLINKY BIOPHARMA, priority 2014, dated 2018).
Values joined by “and” are separate entries in the source; they are usually repeats but may differ in a detail not shown here. Equal values may be shown once. Read-outs that look alike come from different tables or passages of the source.

What was measured:
[1] = target: T1, recombinant activated p38alpha (Homo sapiens, UniProt Q16539); assay: in vitro kinase assay p38 (ADP-Glo); type: biochemical; conditions: 100 μM ATP
T1 construct: purchased ProQinase
Method: Purified recombinant activated p38alpha (10 nM)(ProQinase) was preincubated 10 minutes at 30° C. with the compound of interest at concentrations between 1 and 100 μM in duplicate in a final volume of 30 μl of kinase buffer (Hepes 60 mM pH 7.5, MgCl2 3 mM, MnCl2 3 mM, sodium orthovanadate 3 μM, DTT 1.2 mM). After preincubation, peptide substrate (SignalChem #P03-58) and ATP were added to a final concentration of 10 μM and 100 μM respectively, and then incubated 40 minutes at 30° C. for the kinase reaction. Phosphorylation was analysed with ADP-Glo™ (Promega #V9101) and emitted luminescence was measured with BMG Fluostar microplate reader.

[2] = Single dose i.p. and i.v. blood brain barrier permeability study, plasma and brain concentration (LC-MS/MS); type: in vivo, male Sprague Dawley rat; conditions: for concentration at 2 h: male, Sprague Dawley, 10 mg/kg
Method: The objective of these tests was to determine the plasma and brain concentration of the compound 1 in male Sprague Dawley rat after single intraperioneal (i.p.) and intravenous (i.v.) administration.
The compound 1 was administered intravenously (i.v.) through tail vein and intraperitoneally (i.p.) in abdominal cavity. After dosing of each animal, the time was documented.
Formulation vehicle: 20 Vol.-% Cremophore, 10 Vol.-% ethanol, 70 Vol.-% normal saline
Bioanalysis was performed using fit-for-purpose LC-MS/MS method for the quantification of test compounds in plasma samples and brain homogenate. The method was validated for calibration curve consisted of nine non-zero calibration standards along with a double blank and zero standard samples. Study samples were analysed along with two sets of quality control samples (6 QC samples; low, medium and high QC sample).
Sample Process: Blood samples were placed on ice prior to centrifugation and centrifuged within 15 min at 5000 rpm for 10 min at 4° C.
Immediately after blood withdrawal, in situ brain perfusion was performed using chilled saline. The chest of the rat was exposed, the abdominal aorta was clamped and both jugular veins were cut. Intra-cardial perfusion was performed through an insertion in the left ventricle. Perfusion of each rat was followed by exanguination for brain collection. The skin over the cranium was incised and deflected. The head was flexed and a cut was made through the muscles and the spinal cord at the junction of the foreman magnum and atlas vertebra. A circumferential incision was carefully made in the cranium using a bone cutter. The roof of the cranium was lifted off to expose the meninges and brain. The meninges were removed carefully. Then holding the head with the nose pointing upward, the anterior part of the brain was lifted to separate the brain. Separated brain was immediately weighed and frozen at −80±10° C. until homogenization.
Brain samples were thawed on ice. An appropriate volume of ice cold homogenizing media (Normal Saline) was added. Brain samples were homogenized on ice with the Polytron® homogenizer and volume was adjusted with homogenizing media to achieve 1 g of brain per 5 ml of homogenate. After homogenization, the brain homogenate were immediately frozen at −80° C. until analysis.

[3] = test system: Aβ25-35-induced Aβ1-42 accumulation in the rat hippocampus; assay: Aβ1-42 content in hippocampus by ELISA after i.c.v. Aβ25-35 injection; type: in vivo, male Sprague Dawley rats; conditions: 10 mg/kg i.v. once a day; after Aβ25-35 injection; vs Sc.Aβ/Veh group
Method: The compound efficacy was evaluated 7 days after the peptide administration, on: • the attenuation of the Aβ25-35-induced learning deficits (recognition long-term memory: novel object recognition); • the attenuation of the Aβ25-35-induced Aβ^1-42 accumulation in the rat hippocampus.
One administration procedure was examined: the compound 1 (10 mg/kg) administered intraveinously (i.v.) once a day during 9 days.
On day 10, all animals were sacrificed, the frontal cortex and hippocampi dissected out. One hippocampus was used for the ELISA analyses of Aβ1-42 content.
Samples were prepared from one hippocampus tissues of each rat per group and homogenized in an extraction buffer specific to the commercial ELISA assay kits.
After thawing, the hippocampus were homogenized in 50 mM Tris-150 mM NaCl buffer, pH 7.5, and sonicated for 20 s. After centrifugation (16,100 g for 15 min, 4° C.), supernatants were used for Aβ1-42 ELISA assay according to the manufacturer instructions. Absorbance was read at 450 nm and sample concentration was calculated using the standard curve. Results will be expressed in pg of Aβ1-42 per mg of tissue. […]
All values were expressed as mean±S.E.M. Statistical analyses were performed on the different conditions using one-way ANOVA (F value), followed by the Dunnett's post-hoc multiple comparison test. p<0.05 was considered as statistically significant.

T1 sequence (Q16539 whole entry): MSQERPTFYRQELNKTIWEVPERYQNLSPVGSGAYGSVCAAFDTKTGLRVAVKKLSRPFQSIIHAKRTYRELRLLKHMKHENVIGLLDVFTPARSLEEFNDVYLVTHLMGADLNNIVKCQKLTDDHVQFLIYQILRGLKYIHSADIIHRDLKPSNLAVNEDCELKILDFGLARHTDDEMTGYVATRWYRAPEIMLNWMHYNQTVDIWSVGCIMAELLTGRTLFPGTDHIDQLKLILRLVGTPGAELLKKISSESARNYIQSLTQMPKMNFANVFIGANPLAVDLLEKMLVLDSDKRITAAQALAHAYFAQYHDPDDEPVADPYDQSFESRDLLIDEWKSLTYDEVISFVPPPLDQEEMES

inhibition at 1 µM ([1]; 1 μM compound): 37%
inhibition at 10 µM ([1]; 10 μM compound): 99%
Concentration in rat brain homogenate i.p. at 2 h, individual rats ([2]; 10 mg/kg i.p., rats R1, R2, R3): 31.30 ng/g and 44.55 ng/g
Concentration in rat plasma i.p. at 2 h, individual rats ([2]; 10 mg/kg i.p., rats R1, R2, R3): 63.64 ng/mL and 87.75 ng/mL
Concentration in rat brain homogenate i.v. at 2 h, individual rats ([2]; 10 mg/kg i.v., rats R1, R2, R3): 394.80 ng/g and 439.45 ng/g
Concentration in rat plasma i.v. at 2 h, individual rats ([2]; 10 mg/kg i.v., rats R1, R2, R3): 293.38 ng/mL and 156.26 ng/mL
concentration at 2 h ([2]; rat, brain homogenate, intraperitoneal, 10 mg/kg i.p., mean of 3 rats, read-out: Concentration in rat brain homogenate i.p. at 2 h, Mean): 41.6 ng/g
concentration at 2 h ([2]; rat, brain homogenate, intraperitoneal, 10 mg/kg i.p., rats R1, R2, R3, read-out: Concentration in rat brain homogenate i.p. at 2 h, individual rats): 49.1 ng/g
concentration at 2 h ([2]; rat, brain homogenate, intravenous, 10 mg/kg i.v., mean of 3 rats, read-out: Concentration in rat brain homogenate i.v. at 2 h, Mean): 386 ng/g
concentration at 2 h ([2]; rat, brain homogenate, intravenous, 10 mg/kg i.v., rats R1, R2, R3, read-out: Concentration in rat brain homogenate i.v. at 2 h, individual rats): 323 ng/g
concentration at 2 h ([2]; rat, plasma, intraperitoneal, 10 mg/kg i.p., mean of 3 rats, read-out: Concentration in rat plasma i.p. at 2 h, Mean): 91.5 ng/mL
concentration at 2 h ([2]; rat, plasma, intraperitoneal, 10 mg/kg i.p., rats R1, R2, R3, read-out: Concentration in rat plasma i.p. at 2 h, individual rats): 123 ng/mL
concentration at 2 h ([2]; rat, plasma, intravenous, 10 mg/kg i.v., mean of 3 rats, read-out: Concentration in rat plasma i.v. at 2 h, Mean): 204 ng/mL
concentration at 2 h ([2]; rat, plasma, intravenous, 10 mg/kg i.v., rats R1, R2, R3, read-out: Concentration in rat plasma i.v. at 2 h, individual rats): 163 ng/mL
blood-brain permeability (in words) ([2]; rat, 10 mg/kg i.v. or i.p., 2 h): excellent blood-brain permeability
Structure (SMILES): CCCOc1ccc(Nc2nc3nonc3nc2N2CCC(Oc3ccc(Cl)cc3)CC2)cc1 [Comp 1]
Aβ1-42 level in the hippocampus [3]: decreased the Aβ1-42 level increase
